Like-named read-outs stand apart in the source and are kept apart here.
What was measured:
Format in all cases: cell-based
[1] = system: HCV 1a RLuc cells (dicistronic genotype 1a H77 replicon, RLuc reporter); assay: microbe, parasite or virus in culture; conditions: Hepatitis C virus, read-out: 1a
Outline: (§1)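 Replicons used: genotype 1b Con1, 1a H77, 2a JFH-1, and a 2a JFH-1 chimera with J6-strain NS5A (M31 present), all dicistronic.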

[2] = system: HCV 1b RLuc cells (dicistronic genotype 1b Con1 replicon, RLuc reporter); assay: microbe, parasite or virus in culture; conditions: Hepatitis C virus, read-out: 1b (nM)
Outline: as §1

[3] = system: HCV 2a JFH-1 Rluc cells (dicistronic genotype 2a JFH-1 replicon, RLuc reporter); assay: microbe, parasite or virus in culture; conditions: Hepatitis C virus, genotype 2a JFH-1 replicon, read-out: 2a JFH
Outline: as §1

[4] = system: HCV 3a RLuc cells (NS5A chimeric genotype 1b Con1 replicon with consensus genotype 3a NS5A gene); assay: microbe, parasite or virus in culture; conditions: Hepatitis C virus
Outline: (§2)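 Replicon cells stably carrying the listed RLuc-encoding dicistronic replicons were seeded and treated with DMSO serial dilutions of compound (10 mM stocks) diluted into culture medium. After 72 h, cells were lysed and Renilla luciferase activity measured. EC50 was derived by non-linear regression.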

[5] = system: HCV 4a Rluc cells (NS5A chimeric genotype 1b Con1 replicon with genotype 4a NS5A gene); assay: microbe, parasite or virus in culture; conditions: Hepatitis C virus, read-out: 4a
Outline: as §2

[6] = system: HCV 2a Rluc cells (NS5A chimeric genotype 2a JFH-1 replicon with genotype 2a J6 strain NS5A gene, M31 present); assay: HCV replicon reporter assay, genotype 2a J6 (M31 present); conditions: Hepatitis C virus, read-out: 2a J6
Experimental: Evaluation of cell-based anti-HCV activity: Antiviral potency (EC50) was determined using a Renilla luciferase (RLuc)-based HCV replicon reporter assay. To perform the assay for genotype 1 and 2a JFH-1, HCV 1b RLuc cells (harboring a dicistronic genotype 1b Con1 replicon that encodes a RLuc reporter), or HCV 1a RLuc cells (harboring a dicistronic genotype 1a H77 replicon that encodes a RLuc reporter), or HCV 2a JFH-1 Rluc cells (harboring a dicistronic genotype 2a JFH-1 replicon that encodes a RLuc reporter) were dispensed into 384-well plates. To perform the assay for genotype 2a (with M31 present) or 2b, HCV 2a Rluc or 2b Rluc cells (both with M31 present) harboring a dicistronic NS5A chimeric genotype 2a JFH-1 replicon that encodes a RLuc reporter and either genotype 2a J6 strain NS5A gene or genotype 2b MD2b-1 NS5A gene (based on Los Alamos HCV database isolates, both with M31 present) respectively, were dispensed into 384-well plates. To perform the assay for genotype 3 and 4, HCV 3a RLuc or 4a Rluc cells harboring a dicistronic NS5A chimeric genotype 1b Con1 replicon that encodes a RLuc reporter and either a consensus genotype 3a NS5A gene or genotype 4a NS5A gene (based on Los Alamos HCV database isolates) respectively, were dispensed into 384-well plates. Compounds were re-suspended in DMSO at a concentration of 10 mM and serially diluted in DMSO either manually or using an automated pipeting instrument. Serially diluted compounds were mixed with cell culture media and added to the seeded cells. […] 72 hours later, cells were lysed and Renilla luciferase activity quantified as recommended by the manufacturer (Promega-Madison, Wis.). Non-linear regression was performed to calculate EC50 values.

[7] = read-out: 3a, genotype 3a replicon
[8] = genotype 1a H77 replicon, RLuc reporter
[9] = read-out: 3a, genotype 3a NS5A chimeric 1b Con1 replicon

Compound	EC50 ([1]; genotype 1a replicon)	EC50 [2]	EC50 [3]	EC50 [4, 7]	EC50 [5]	EC50 [1, 8]	EC50 ([3]; RLuc reporter)	EC50 [4, 9]	other results
COC(=O)N[C@H](C(=O)N1[C@@H]2CC[C@@H](C2)[C@H]1c1nc(Cl)c(-c2ccc(-c3ccc4c(ccc5nc([C@@H]6CCCN6C(=O)[C@H](NC(=O)OC)c6ccccc6)[nH]c54)c3)cc2)[nH]1)C(C)C [Example 401]	0.001 to 0.999 nM	0.015 nM	0.001 to 0.999 nM	0.001 to 0.99 nM	0.001 to 0.99 nM	–	–	–	EC50 [6]: 1 to 44 nM
COC(=O)N[C@H](C(=O)N1CCC[C@H]1c1ncc(-c2cc3c4c(c2)OCc2cc(-c5[nH]c([C@@H]6CCCN6C(=O)[C@@H](NC(=O)OC)C(C)C)nc5Cl)cc(c2-4)OC3)[nH]1)C(C)C [Example 389]	0.001 to 0.999 nM	0.015 nM	0.001 to 0.999 nM	0.001 to 0.99 nM	0.001 to 0.99 nM	–	–	–	EC50 [6]: 1 to 44 nM
COC(=O)N[C@H](C(=O)N1CCC[C@H]1c1nc2ccc3cc(-c4ccc(-c5cnc([C@@H]6[C@H]7CC[C@H](C7)N6C(=O)[C@H](NC(=O)OC)c6ccccc6)[nH]5)c(F)c4)ccc3c2[nH]1)C(C)C [Example 306]	0.001 to 0.999 nM	0.011 nM	0.001 to 0.999 nM	0.001 to 0.99 nM	0.001 to 0.99 nM	–	–	–	EC50 [6]: > 44 nM
COC(=O)N[C@H](C(=O)N1CC2(CC2)C[C@H]1c1nc(-c2ccc3c(c2)C(F)(F)c2cc(-c4ccc5nc([C@@H]6[C@H]7CC[C@H](C7)N6C(=O)[C@@H](NC(=O)OC)C(C)C)[nH]c5c4)ccc2-3)c(Cl)[nH]1)C(C)C [Example 382]	0.001 to 0.999 nM	0.006 nM	> 44 nM	> 5 nM	0.001 to 0.99 nM	–	–	–	–
COC(=O)N[C@H](C(=O)N1CCC[C@H]1c1ncc(-c2cc3c(cc2F)-c2ccc(-c4cnc([C@@H]5CCCN5C(=O)[C@@H](NC(=O)OC)C(C)C)[nH]4)c(F)c2CO3)[nH]1)C(C)C [Example 341]	0.001 to 0.999 nM	0.006 nM	0.001 to 0.999 nM	0.001 to 0.99 nM	0.001 to 0.99 nM	–	–	–	–
COC(=O)N[C@H](C(=O)N1CCC[C@H]1c1ncc(-c2ccc(-c3ccc(-c4ccc5cc(-c6cnc([C@@H]7CCCN7C(=O)[C@H](NC(=O)OC)c7ccccc7)[nH]6)ccc5c4)cc3)cc2)[nH]1)C(C)C [Example 197]	–	0.01 nM	–	–	0.001 to 0.99 nM	1 to 44 nM	1 to 44 nM	0.001 to 0.99 nM	–
COC(=O)N[C@H](C(=O)N1CC2(C[C@H]1c1ncc(-c3ccc(-c4ccc5c(ccc6nc([C@@H]7CCCN7C(=O)[C@H](NC(=O)OC)c7ccccc7)[nH]c65)c4)cc3)[nH]1)OCCO2)C(C)C [Example 354]	0.001 to 0.999 nM	0.031 nM	0.001 to 0.999 nM	0.001 to 0.99 nM	0.001 to 0.99 nM	–	–	–	–
COC(=O)N[C@H](C(=O)N1[C@@H]2CC[C@@H](C2)[C@H]1c1nc2ccc3cc(-c4ccc5c(ccc6nc([C@@H]7C[C@H]8C[C@H]8N7C(=O)[C@H](NC(=O)OC)c7ccccc7)[nH]c65)c4)ccc3c2[nH]1)C(C)C [Example 344]	0.001 to 0.999 nM	0.01 nM	0.001 to 0.999 nM	0.001 to 0.99 nM	0.001 to 0.99 nM	–	–	–	–
COC(=O)N[C@H](C(=O)N[C@H](c1nc(-c2ccc3c(c2)C(F)(F)c2cc(-c4ccc5nc([C@@H]6CCCN6C(=O)[C@H](NC(=O)OC)c6ccccc6)[nH]c5c4)ccc2-3)c[nH]1)C(C)C)C(C)C [Example 226]	–	0.009 nM	–	–	0.001 to 0.99 nM	1 to 44 nM	1 to 44 nM	1 to 4.99 nM	–
COC(=O)N[C@H](C(=O)N1CCC[C@H]1c1ncc(-c2ccc3cc(-c4ccc(-c5cnc([C@@H]6CCCN6C(=O)[C@H](NC(=O)C6CCCO6)c6ccccc6)[nH]5)cc4)ccc3c2)[nH]1)C(C)C (stereo partly shown) [Example 261]	–	0.011 nM	–	–	0.001 to 0.99 nM	0.001 to 0.999 nM	0.001 to 0.999 nM	0.001 to 0.99 nM	–
COC(=O)N[C@H](C(=O)N1[C@@H]2CC[C@@H](C2)[C@H]1c1nc2ccc(-c3ccc4c(c3)C(F)(F)c3cc(-c5cnc([C@@H]6CCCN6C(=O)[C@H](NC(=O)OC)c6ccccc6)[nH]5)ccc3-4)cc2[nH]1)C(C)C [Example 41]	–	–	–	–	0.001 to 0.99 nM	–	–	–	EC50 ([1]; 72 h, Table 2, genotype 1a H77 replicon, 72 hours): 0.001 to 0.999 nM; EC50 ([2]; 72 h): 0.005 nM; EC50 ([3]; 72 h, Table 2, 72 hours): 0.001 to 0.999 nM; EC50 ([4]; read-out: 3a, Table 2, genotype 3a NS5A chimeric replicon): 0.001 to 0.99 nM
COC(=O)N[C@H](C(=O)N1CCC[C@H]1c1ncc(-c2ccc(-c3cc4ccc(-c5c[nH]c([C@@H]6CCCN6C(=O)[C@H](NC(=O)OC)c6ccccc6)n5)cc4s3)cc2)[nH]1)C(C)C [Example 252]	–	0.004 nM	–	–	0.001 to 0.99 nM	0.001 to 0.999 nM	0.001 to 0.999 nM	0.001 to 0.99 nM	–
COC(=O)N[C@H](C(=O)N1CCC[C@H]1c1ncc(-c2ccc3c(c2)COc2c-3ccc(-c3cnc([C@@H]4CCCN4C(=O)[C@@H](NC(=O)OC)C(C)C)[nH]3)c2F)[nH]1)C(C)C [Example 308]	0.001 to 0.999 nM	0.008 nM	0.001 to 0.999 nM	0.001 to 0.99 nM	0.001 to 0.99 nM	–	–	–	–
COC(=O)NC(C(=O)N1CCC[C@H]1c1ncc(-c2cc3c4c(c2)CCc2cc(-c5cnc([C@@H]6CCCN6C(=O)[C@@H](NC(=O)OC)[C@@H](C)OC)[nH]5)cc(c2-4)CC3)[nH]1)[C@@H](C)OC (stereo partly shown) [Example 21]	–	–	–	–	0.001 to 0.99 nM	–	–	–	EC50 ([1]; 72 h, Table 1, genotype 1a H77 replicon, 72 hours): 0.001 to 0.999 nM; EC50 ([2]; 72 h): 0.06 nM; EC50 ([3]; 72 h, Table 1, 72 hours): 0.001 to 0.999 nM; EC50 ([4]; read-out: 3a, Table 1, genotype 3a NS5A chimeric replicon): 0.001 to 0.99 nM
COC(=O)N[C@H](C(=O)N1CCS[C@@H]1c1nc2ccc3cc(-c4ccc(-c5cnc([C@@H]6CCCN6C(=O)[C@@H](NC(=O)OC)C6CCOCC6)[nH]5)cc4)ccc3c2[nH]1)C(C)C [Example 332]	1 to 44 nM	1.25 nM	0.001 to 0.999 nM	1 to 4.99 nM	0.001 to 0.99 nM	–	–	–	–
COC(=O)N[C@H](C(=O)N1CCC[C@H]1c1nc2ccc3cc(-c4ccc5cc(-c6cnc([C@@H]7CCCN7C(=O)[C@H](NC(=O)C(C)(C)O)c7ccccc7)[nH]6)ccc5c4)ccc3c2[nH]1)C(C)C [Example 287]	–	0.006 nM	–	–	0.001 to 0.99 nM	0.001 to 0.999 nM	0.001 to 0.999 nM	0.001 to 0.99 nM	–
COC(=O)N[C@H](C(=O)N1CCC[C@H]1c1ncc(-c2ccc3cc(-c4ccc(-c5cnc([C@@H]6CCCN6C(=O)[C@H](NC(=O)c6ccccn6)c6ccccc6)[nH]5)cc4)ccc3c2)[nH]1)C(C)C [Example 221]	–	0.017 nM	–	–	0.001 to 0.99 nM	0.001 to 0.999 nM	0.001 to 0.999 nM	0.001 to 0.99 nM	–
COC(=O)N[C@H](C(=O)N1CCC[C@H]1c1ncc(-c2ccc3cc(-c4ccc(-c5cnc([C@@H]6CCCN6C(=O)OC(C)(C)C)[nH]5)cc4)ccc3c2)[nH]1)C(C)C [Example 247]	–	0.758 nM	–	–	0.001 to 0.99 nM	1 to 44 nM	> 44 nM	> 5 nM	–
COC(=O)N[C@H](C(=O)N1[C@@H]2C[C@@H]2C[C@H]1c1nc2ccc3cc(-c4ccc(-c5cnc([C@@H]6[C@H]7CC[C@H](C7)N6C(=O)[C@H](NC(=O)OC)c6ccccc6)[nH]5)cc4)ccc3c2[nH]1)C(C)C [Example 337]	0.001 to 0.999 nM	0.01 nM	0.001 to 0.999 nM	0.001 to 0.99 nM	0.001 to 0.99 nM	–	–	–	–
COC(=O)N[C@H](C(=O)N1CCC[C@H]1c1nc2ccc3cc(-c4ccc5cc(-c6cnc([C@@H]7CCCN7C(=O)[C@H](NC(=O)N7CCOCC7)c7ccccc7)[nH]6)ccc5c4)ccc3c2[nH]1)C(C)C [Example 288]	–	0.009 nM	–	–	0.001 to 0.99 nM	0.001 to 0.999 nM	0.001 to 0.999 nM	0.001 to 0.99 nM	–

— patent US10344019B2 (priority 2010, dated 2019)
